From patent US20250320202A1, “PRMT5 INHIBITOR, PREPARATION METHOD THEREFOR, AND PHARMACEUTICAL USE THEREOF” (Abbisko Therapeutics Co., Ltd., priority 2022, published 2025)

Experiments:
[1] = tested on: HCT116 MTAP wild-type cells; experiment: Human colon cancer HCT116 cell proliferation inhibition test (CellTiter-Glo, 6 days), MTAP wild-type cells; format: cell-based; details: HCT-116, 144 h
Method: (§1) 1. HCT116 MTAP knockout and MTAP wild-type cells were plated in 96-well flat bottom plates, and cultured overnight with McCoy's 5A medium containing 10% fetal bovine serum+1% penicillin-streptomycin at 37° C. and 5% CO2.
(§2) 2. On the next day, the compound was dissolved with DMSO, diluted with DMSO and medium successively and transferred to the cell plate. The final concentration of the compound was 10 μM, the compound was diluted 4 times, with 9 concentration gradients, and DMSO control was added.
(§3) 3. Cells that have not been treated with the compound were removed. CellTiter-Glo Luminescent Cell Viability Assay (Promega) was used to detect cell viability, the operation was performed with reference to the package insert of the kit, and then the cell plate was placed on EnVision Multilabel Reader to detect the cold light signal.
(§4) 4. Meanwhile, the cell plate treated with the compound was cultured at 37° C. and 5% CO2 for 6 consecutive days.
(§5) 5. Then, CellTiter-Glo was also used to detect cell viability.
(§6) 6. Finally, the four-parameter dose-response curve module of GraphPad Prism v 9.2.0 software was used to plot the dose-response curve and calculate the IC50 for proliferation inhibition (unit: nM).

[2] = tested on: HCT116 MTAP knockout cells; experiment: Human colon cancer HCT116 cell proliferation inhibition test (CellTiter-Glo, 6 days), MTAP knockout cells; format: cell-based; details: HCT-116, 144 h
Method: as §1, §2, §3, §4, §5, §6

[3] = Pharmacokinetic assay in mice, blood-brain barrier penetration analysis (Kp); format: in vivo; details: male, mouse, ICR mice, PO single dose 10 mg/kg, brain vs plasma, read-out: Kp (4 h after administration)
Method: The purpose of this trial is to study the pharmacokinetic behavior of some compounds of the present invention, and the administration method is: ICR mice were orally administered (PO) a single dose, at a dose of 10 mg/kg.
ICR mice male N=3 original source: Shanghai Sippr-Bk Lab Animal Co., Ltd.
The compounds were weighed and dissolved in 20% PG+10% Solutol HS15+70% pH 3 citrate buffer, respectively, shaken well and sonicated to prepare colorless clear solutions. 9 mice were administered orally after an overnight fast. The dose was 10 mg/kg.
• 1) About 90 μL blood was collected via the submandibular vein per time point, heparin sodium anticoagulant was added, the sample was placed on ice after collection, and plasma was centrifuged within 1 hour (centrifugation conditions: 8,000 rpm, 6 minutes, 2-8° C.). • 2) The blood collection time points were 1, 4, and 24 h. The samples were stored in a refrigerator at −20° C. • 3) The plasma sample was 40 μL, 160 μL of ice-cold acetonitrile containing internal standard was added, vortexed for 3 minutes, and centrifuged at 11,000 rpm for 5 minutes. • 4) 100 μL of the supernatant was taken and added to 100 μL of water, 5 μL of the sample was taken and injected into LC/MS/MS for analysis.
AUC or concentration in brain or plasma measured by using the above method was used to calculate the Kp. Kp refers to the relationship between drug concentrations in brain and blood and is used to evaluate the ability of a drug to penetrate the blood-brain barrier. Post-dose Kp was calculated by the following formula: […]

IC50 [1] [nM] | IC50 [2] [nM] | Kp at 4 h [3] | Compound
79 | 3.6 | 0.4 | Nc1nc2ccc(C(=O)N(CC3CC3)[C@@H]3COc4cc(C(F)(F)F)ccc43)cc2c2cnccc12 [Example 192, (S)-5-amino-N-(cyclopropylmethyl)-N-(6-(trifluoromethyl)-2,3-dihydrobenzofuran-3-yl)benzo[c][2,6]naphthyridin-9-carboxamide]
130 | 4 |  | C[C@H]1OCc2c1c(N)nc1cc(F)c(C(=O)N(c3cnn(C)c3)[C@@H]3COc4nc(C(F)(F)F)ccc43)cc21 [Example 208, (R)-4-amino-7-fluoro-3-methyl-N-(1-methyl-1H-pyrazol-4-yl)-N-((S)-6-(trifluoromethyl)-2,3-dihydrofuro[2,3-b]pyridin-3-yl)-1,3-dihydrofuro[3,4-c]quinolin-8-carboxamide]
279 | 4 |  | Cn1cc(N(C(=O)c2cc3c4c(c(N)nc3cc2F)COC4)[C@@H]2COc3nc(C(F)(F)F)ccc32)cn1 [Example 209, (S)-4-amino-7-fluoro-N-(1-methyl-1H-pyrazol-4-yl)-N-(6-(trifluoromethyl)-2,3-dihydrofuro[2,3-b]pyridin-3-yl)-1,3-dihydrofuro[3,4-c]quinolin-8-carboxamide]
7400 | 63 |  | Nc1nc2ccc(C(=O)N(c3ncccn3)C3CCc4cc(C(F)(F)F)ccc43)cc2c2cnccc12 (stereo not drawn) [Example 210, 5-amino-N-(pyrimidin-2-yl)-N-(5-(trifluoromethyl)-2,3-dihydro-1H-inden-1-yl)benzo[c][2,6]naphthyridin-9-carboxamide]
70 | 3 |  | Nc1nc2cc(F)c(C(=O)N(c3cscn3)[C@@H]3CCc4cc(C(F)(F)F)ccc43)cc2c2c1COC2 [Example 213, (R)-4-amino-7-fluoro-N-(thiazol-4-yl)-N-(5-(trifluoromethyl)-2,3-dihydro-1H-inden-1-yl)-1,3-dihydrofuro[3,4-c]quinolin-8-carboxamide]
1560 | 35 | 0.5 | Nc1nc2ccc(C(=O)N(CC3CC3)[C@@H]3CCc4cc(C(F)(F)F)ccc43)cc2c2cnccc12 [Example 219, (R)-5-amino-N-(cyclopropylmethyl)-N-(5-(trifluoromethyl)-2,3-dihydro-1H-inden-1-yl)benzo[c][2,6]naphthyridin-9-carboxamide]
335 | 17 |  | Cn1cc(N(C(=O)c2cc3c4c(c(N)nc3cc2F)COC4)[C@@H]2CCc3cc(C(F)(F)F)ccc32)cn1 [Example 220, (R)-4-amino-7-fluoro-N-(1-methyl-1H-pyrazol-4-yl)-N-(5-(trifluoromethyl)-2,3-dihydro-1H-inden-1-yl)-1,3-dihydrofuro[3,4-c]quinolin-8-carboxamide]
1340 | 88 |  | C[C@H](c1ncccn1)N(C(=O)c1cc2c(cc1F)nc(N)c1cnn(C)c12)[C@@H]1CCc2cc(C(F)(F)F)ccc21 [Example 221, 4-amino-7-fluoro-1-methyl-N-((R)-1-(pyrimidin-2-yl)ethyl)-N-((R)-5-(trifluoromethyl)-2,3-dihydro-1H-inden-1-yl)-1H-pyrazolo[4,3-c]quinolin-8-carboxamide]
9470 | 286 |  | Nc1nc2ccc(C(=O)N(C3CC3)C3CCc4nc(C(F)(F)F)ccc43)cc2c2cnccc12 (stereo not drawn) [Example 225, 5-amino-N-cyclopropyl-N-(2-(trifluoromethyl)-6,7-dihydro-5H-cyclopenta[b]pyridin-5-yl)benzo[c][2,6]naphthyridin-9-carboxamide]
1950 | 50 |  | Cn1cc(N(C(=O)c2ccc3nc(N)c4ccncc4c3c2)[C@@H]2CCc3cc(C(F)(F)F)ccc32)cn1 [Example 226, (R)-5-amino-N-(1-methyl-1H-pyrazol-4-yl)-N-(5-(trifluoromethyl)-2,3-dihydro-1H-inden-1-yl)benzo[c][2,6]naphthyridin-9-carboxamide]
1070 | 85 |  | CN(C(=O)c1ccc2nc(N)c3ccncc3c2c1)[C@@H]1CCc2cc(C(F)(F)F)ccc21 [Example 227, (R)-5-amino-N-methyl-N-(5-(trifluoromethyl)-2,3-dihydro-1H-inden-1-yl)benzo[c][2,6]naphthyridin-9-carboxamide]
61 | 3 |  | Cn1cc(N(C(=O)c2cc3c(cc2F)nc(N)c2cnn(C)c23)[C@@H]2CCc3cc(C(F)(F)F)ccc32)cn1 [Example 229, (R)-4-amino-7-fluoro-1-methyl-N-(1-methyl-1H-pyrazol-4-yl)-N-(5-(trifluoromethyl)-2,3-dihydro-1H-inden-1-yl)-1H-pyrazolo[4,3-c]quinolin-8-carboxamide]
145 | 13 |  | Cc1cc2nc(N)c3ccncc3c2cc1C(=O)N(CC1CC1)[C@@H]1COc2nc(C(F)(F)F)ccc21 [Example 230, (S)-5-amino-N-(cyclopropylmethyl)-8-methyl-N-(6-(trifluoromethyl)-2,3-dihydrofuro[2,3-b]pyridin-3-yl)benzo[c][2,6]naphthyridin-9-carboxamide]
604 | 15 |  | Nc1nc2cc(F)c(C(=O)N(CC3CC3)[C@@H]3COc4nc(C(F)(F)F)ccc43)cc2c2cnccc12 [Example 231, (S)-5-amino-N-(cyclopropylmethyl)-8-fluoro-N-(6-(trifluoromethyl)-2,3-dihydrofuro[2,3-b]pyridin-3-yl)benzo[c][2,6]naphthyridin-9-carboxamide]
363 | 10 |  | Nc1nc2cc(Cl)c(C(=O)N(CC3CC3)[C@@H]3COc4nc(C(F)(F)F)ccc43)cc2c2cnccc12 [Example 232, (S)-5-amino-8-chloro-N-(cyclopropylmethyl)-N-(6-(trifluoromethyl)-2,3-dihydrofuro[2,3-b]pyridin-3-yl)benzo[c][2,6]naphthyridin-9-carboxamide]
102 | 33 | 0.4 | Cc1cc2nc(N)c3ccncc3c2cc1C(=O)N(CC1CC1)[C@@H]1COc2cc(C(F)(F)F)ccc21 [Example 233, (S)-5-amino-N-(cyclopropylmethyl)-8-methyl-N-(6-(trifluoromethyl)-2,3-dihydrobenzofuran-3-yl)benzo[c][2,6]naphthyridin-9-carboxamide]
224 | 20 | 0.7 | Nc1nc2cc(F)c(C(=O)N(CC3CC3)[C@@H]3COc4cc(C(F)(F)F)ccc43)cc2c2cnccc12 [Example 234, (S)-5-amino-N-(cyclopropylmethyl)-8-fluoro-N-(6-(trifluoromethyl)-2,3-dihydrobenzofuran-3-yl)benzo[c][2,6]naphthyridin-9-carboxamide]
227 | 9 |  | Cc1cc2nc(N)c3ccncc3c2cc1C(=O)N(CC1CC1)[C@@H]1CCc2nc(C(F)(F)F)ccc21 [Example 236, (R)-5-amino-N-(cyclopropylmethyl)-8-methyl-N-(2-(trifluoromethyl)-6,7-dihydro-5H-cyclopenta[b]pyridin-5-yl)benzo[c][2,6]naphthyridin-9-carboxamide]
788 | 20 |  | Nc1nc2cc(F)c(C(=O)N(CC3CC3)[C@@H]3CCc4nc(C(F)(F)F)ccc43)cc2c2cnccc12 [Example 237, (R)-5-amino-N-(cyclopropylmethyl)-8-fluoro-N-(2-(trifluoromethyl)-6,7-dihydro-5H-cyclopenta[b]pyridin-5-yl)benzo[c][2,6]naphthyridin-9-carboxamide]
264 | 14 |  | Nc1nc2cc(Cl)c(C(=O)N(CC3CC3)[C@@H]3CCc4nc(C(F)(F)F)ccc43)cc2c2cnccc12 [Example 238, (R)-5-amino-8-chloro-N-(cyclopropylmethyl)-N-(2-(trifluoromethyl)-6,7-dihydro-5H-cyclopenta[b]pyridin-5-yl)benzo[c][2,6]naphthyridin-9-carboxamide]
696 | 54 |  | CCN(C(=O)c1cc2c(cc1F)nc(N)c1cnn(C)c12)C1CCc2cc(C(F)(F)F)ccc21 (stereo not drawn) [Reference Compound 1, reference compound]
278 | 9 |  | Cn1cc(N(Cc2ccc(C(F)(F)F)cn2)C(=O)c2cc3c(cc2F)nc(N)c2cnn(C)c23)cn1 [compound 3, reference compound]
